Structures can show the parent of a compound that is named as a salt.
Experiments:
[1] = test system: IE2 negative feedback (MIEP-IE2-IRES-GFP construct, LM2ig); test: IE2 negative feedback reporter: cells harboring LM2ig (MIEP-IE2-IRES-GFP), GFP by flow cytometry; type: cell-based, human CMV (hCMV); settings: for quiescent MIEP-driven expression in a reporter cell line: 20 μM Hoechst 33258, FACS, FIG. 4 upper panel; for production of IE2, as measured by GFP expression (GFP mean fluorescence intensity; GFP-MFI): ARPE-19 cells stably transduced with LM2ig, FIG. 1, FIG. 2; for increase in the number of GFP-positive cells: Hoechst 33342 0.25 μM, VPA concentrations as in Teng et al. (2012), cells harboring LM2ig, FIG. 6
Method: (§1) MRCS fibroblasts and life-extended human foreskin fibroblasts (HFFs) (Bresnahan and Shenk, 2000) were maintained in Dulbecco's Modified Eagle's Medium (DMEM) supplemented with 10% fetal bovine serum (FBS) and 50 U/ml penicillin-streptomycin at 37° C. and 5% CO2 in a humidified incubator. ARPE-19 cells were maintained in a 1:1 mixture of DMEM/F-12 (Mediatech Inc.) with 10% FBS (HyClone) and 50 U/ml Penicillin-Streptomycin (Mediatech Inc.). Cells were treated with a final concentration of 1 mM valproic acid (VPA) (Calbiochem™), resuspended in dimethylsulfoxide, for approximately 24 hours before imaging. Cells were treated with a final concentration of 400 nM TSA (Sigma-Aldrich) resuspended in dimethylsulfoxide, for 20-24 hours, a final concentration of 10 ng/mL TNF-α (Sigma-Aldrich) resuspended in phosphate-buffered saline (PBS), or a final concentration of 1 mM VPA (Calbiochem) for approximately 24 hours before imaging.
(§2) Standard lentiviral cloning was used to create minimal major immediate early (MIE) circuits (Dull et al., 1998). The minimal MIEP-IE2-GFP and MIEP-GFP circuits are driven by a full-length ˜2.5 kb MIE promoter-enhancer (MIEP) that spans the sequence from the MIEP modulator at the 5′ edge to the junction of immediate early (IE) exons 1 and 2. The MIEP was polymerase chain reaction (PCR)-cloned from AD169 into pLEIGW in place of the EF1a promoter. This full-length MIEP drives an IE2-IRES-GFP or mCherry-IRES-GFP cassette. IE2 was cloned from pRSV-IE86 (a gift from Jay Nelson). ARPE-19 cells were infected and fluorescence-activated cell sorter (FACS) sorted for green fluorescent protein (GFP) fluorescence to create stably expressing cell lines. Cells were treated with Trichostatin-A (TSA) for 17 hours, and GFP expression was quantified by flow cytometry. Live cells were gated by forward-versus-side scattering on a FacsCalibur™ cytometer (BD Biosciences) and mean fluorescence intensity recorded. At least 20,000 live cells were recorded for each experiment and data was analyzed in FlowJo™ (Treestar Inc.).
See WO 2014/127148 for descriptions of MIEP-IE2-reporter constructs. For example, LM2ig construct is depicted in FIG. 7 of WO 2014/127148.

[2] = test system: ARPE-19 cells stably transduced with LM2ig; test: Viability of ARPE-19 cells stably transduced with LM2ig; type: cell-based; settings: FIG. 1, FIG. 2
Method: as §1, §2

[3] = test system: latent CMV in N-Tera2 cells; test: N-Tera2 latency assay (reactivation of latent CMV); type: cell-based, human CMV (hCMV); settings: FIG. 4 lower panel
Method: Reactivation of latent CMV in N-Tera2 cells was conducted as previously described in (Meier, 2001).

[4] = test system: IE2 negative feedback (LM2ig "low" cells); test: LM2ig "low" drug screen (4 day induction, high throughput flow cytometry); type: cell-based, human CMV (hCMV); settings: induction period of 4 days, FIG. 9
Method: LM2ig “low” cells (˜0% GFP positive before induction) were treated with agents in duplicate for an induction period of 4 days. During this induction period, the cell culture medium was not changed; images were taken every day for 4 days. On the final day, high throughput flow cytometry was carried out on FACS IntelliCyt. Agents tested were: Hoechst 33258, Hoechst 33342, VPA, TSA, TNF-α, hexamethylene bisacetamide (HMBA), phorbol myristate acetate (PMA), neotroposin, distamycin, DAPI, gemcitabine, prednisolone, suberanilohydroxamic acid (SAHA), (2E)-N-hydroxy-3-[4-({[2-(2-methyl-1H-indol-3-yl)ethyl]amino}methyl)phenyl]acrylamide (panobinostat), thapsigargin, JQ1, prostratin, dimizane acetate, pentamidine, or bendamustine.

Structure (SMILES)	quiescent MIEP-driven expression in a reporter cell line ([1]; ARPE-19 cells harboring LM2ig)	number of GFP-positive cells ([1]; ARPE-19 cells harboring LM2ig, Hoechst 33258 with or without VPA, FIG. 7)	mean fluorescence intensity (MFI) ([1]; ARPE-19 cells harboring LM2ig, Hoechst 33258 with or without VPA, FIG. 8)	production of IE2, as measured by GFP expression (GFP mean fluorescence intensity; GFP-MFI) [1]	increase in the number of GFP-positive cells [1] [fold]	cell viability / cytotoxicity [2]	reactivation of latent CMV [3]	percent GFP-positive cells ([1]; 0.25 μM Hoechst 33342, 24 hours, cells with LM2ig construct, FIG. 5)	breaking of the IE2 negative feedback circuit ([1]; 24-28 hour exposure)	reactivation of the LM2ig minimal circuit ([1]; Hoechst 33258: after 24 hours)	breaking of the minimal LM2ig circuit ([1]; after 24 hours, alone)	breaking of the circuit and reactivation of the promoter from an off (silenced) state ([1]; long-term (e.g., 8-10 days) exposure)	breaking of the IE2 negative feedback (geometric mean of GFP) [4]
CCCC(CCC)C(=O)O [VPA, valproic acid, reference compound]	not	induced an increase	did not substantially increase MFI	increased IE2 expression	1.69	not cytotoxic	not						
CCOc1ccc(-c2nc3ccc(-c4nc5ccc(N6CCN(C)CC6)cc5[nH]4)cc3[nH]2)cc1 [Hoechst 33342, 2′-[4-ethoxyphenyl]-5-[4-methyl-1-piperazinyl]-2,5′-bi-1H-benzimidazole trihydrochloride trihydrate]					3.49			increased	breaks the IE2 negative feedback circuit	strongly reactivates	does not break	breaks the circuit and reactivates the promoter	specifically break the IE2 negative feedback
CC(/C=C/C(=O)NO)=C\[C@@H](C)C(=O)c1ccc(N(C)C)cc1 [TSA, (R,2E,4E)-7-(4-(dimethylamino)phenyl)-N-hydroxy-4,6-dimethyl-7-oxohepta-2,4-dienamide, reference compound]	not			increased IE2 expression		not cytotoxic	not						

Reference: patent publication US10478431B2, “Methods for treating a cytomegalovirus infection” (priority 2014, dated 2019)
